Data taken from PMC4338433 (Scientific Reports, 2015).

Assays:
[1] = target: T1, AVR-14B GluCl R76N/Q141R/K219A (RN/QR/KA) (Haemonchus contortus, UniProt O46124, K219A/Q141R/R76N); conditions: R76N/Q141R/K219A triple-mutant; mean ± s.e.m.
T1 sequence (O46124 31-438 R76N/Q141R/K219A): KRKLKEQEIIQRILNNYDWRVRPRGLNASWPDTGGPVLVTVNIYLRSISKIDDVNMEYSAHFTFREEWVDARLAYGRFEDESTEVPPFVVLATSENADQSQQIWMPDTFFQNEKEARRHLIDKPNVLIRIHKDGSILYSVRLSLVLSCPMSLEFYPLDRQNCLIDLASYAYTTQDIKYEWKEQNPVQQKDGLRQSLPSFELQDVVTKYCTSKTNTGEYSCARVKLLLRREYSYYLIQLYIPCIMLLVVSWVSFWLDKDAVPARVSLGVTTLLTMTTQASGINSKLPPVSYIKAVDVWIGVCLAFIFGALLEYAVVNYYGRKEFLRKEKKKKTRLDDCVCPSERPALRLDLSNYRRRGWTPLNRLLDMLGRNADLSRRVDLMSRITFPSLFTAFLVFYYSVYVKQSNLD
Description: (§1) All mutant cDNAs were generated from AVR-14B cDNA in the T7 plasmid vector[45] by conventional PCR with Pfu DNA polymerase (Thermo Scientific, Germany) and commercially generated mutagenesis primers (Eurofins MWG Operon, Ebersberg, Germany). All cDNAs were sequenced to confirm the presence of appropriate mutations (Eurofins MWG Operon) and linearized with XbaI (Thermo Scientific). cRNAs were synthesized with the mMESSAGE mMACHINE T7 Kit (Life Technologies GmbH, Darmstadt, Germany). X. laevis oocytes were used for two electrode voltage-clamp electrophysiology as previously described[48] and under approval of the Technical University of Darmstadt (Agreement V54-19c20/15 DA8/Anz. 20). […] Non-linear regression parameters were compared to the respective WT value with Student's unpaired t tests (Prism4).

AVR-14B GluCl K219A = target: T2, AVR-14B GluCl K219A (Haemonchus contortus, UniProt O46124, K219A); conditions: K219A mutant, mean ± s.e.m.
T2 sequence (O46124 31-438 K219A): T1 sequence (O46124 31-438 R76N/Q141R/K219A)
Description: as §1

AVR-14B GluCl Y248F = target: T3, AVR-14B GluCl Y248F (Haemonchus contortus, UniProt O46124, Y248F); conditions: Y248F mutant, mean ± s.e.m.
T3 sequence (O46124 31-438 Y248F): T1 sequence (O46124 31-438 R76N/Q141R/K219A)
Description: as §1

AVR-14B GluCl T245A = target: T4, AVR-14B GluCl T245A (Haemonchus contortus, UniProt O46124, T245A); conditions: T245A mutant, mean ± s.e.m.
T4 sequence (O46124 31-438 T245A): T1 sequence (O46124 31-438 R76N/Q141R/K219A)
Description: as §1

AVR-14B GluCl Q141R = target: T5, AVR-14B GluCl Q141R (Haemonchus contortus, UniProt O46124, Q141R); conditions: Q141R mutant; mean ± s.e.m.
T5 sequence (O46124 31-438 Q141R): T1 sequence (O46124 31-438 R76N/Q141R/K219A)
Description: as §1

AVR-14B GluCl S169A = target: T6, AVR-14B GluCl S169A (Haemonchus contortus, UniProt O46124, S169A); conditions: S169A mutant, mean ± s.e.m.
T6 sequence (O46124 31-438 S169A): T1 sequence (O46124 31-438 R76N/Q141R/K219A)
Description: as §1

AVR-14B GluCl R76N = assay: Two electrode voltage-clamp of Xenopus laevis oocytes expressing R76N mutant AVR-14B GluCl; format: cell-based, Haemonchus contortus
Description: as §1, with “20). After 2–5 days, oocytes were perfused with extracellular solution (115 mM NaCl, 1 mM KCl, 1.8 mM CaCl2, 10 mM HEPES, pH 7.4 with NaOH) alone or containing agonist, and currents were sampled at 1 kHz and filtered at 500 Hz with a Digidata 1322A digitizer, Geneclamp 500B amplifier and Clampex software (Molecular Devices, Sunnyvale, CA, USA).” for “20).”

[2] = target: H. contortus AVR-14B GluCl (wild-type) (Haemonchus contortus, UniProt O46124); format: cell-based; conditions: Wild-type AVR-14B GluCl, mean ± s.e.m.
Description: as §1

AVR-14B GluCl A197E = assay: Two electrode voltage-clamp of Xenopus laevis oocytes expressing A197E mutant AVR-14B GluCl; format: cell-based, Haemonchus contortus
Description: as §1, with “20). After 2–5 days, oocytes were perfused with extracellular solution (115 mM NaCl, 1 mM KCl, 1.8 mM CaCl2, 10 mM HEPES, pH 7.4 with NaOH) alone or containing agonist, and currents were sampled at 1 kHz and filtered at 500 Hz with a Digidata 1322A digitizer, Geneclamp 500B amplifier and Clampex software (Molecular Devices, Sunnyvale, CA, USA).” for “20).”

AVR-14B GluCl R95A = assay: Two electrode voltage-clamp of Xenopus laevis oocytes expressing R95A mutant AVR-14B GluCl; format: cell-based, Haemonchus contortus; conditions: 1 μM ivermectin, mean ± s.e.m.
Description: as §1, with “20). After 2–5 days, oocytes were perfused with extracellular solution (115 mM NaCl, 1 mM KCl, 1.8 mM CaCl2, 10 mM HEPES, pH 7.4 with NaOH) alone or containing agonist, and currents were sampled at 1 kHz and filtered at 500 Hz with a Digidata 1322A digitizer, Geneclamp 500B amplifier and Clampex software (Molecular Devices, Sunnyvale, CA, USA).” for “20).”

AVR-14B GluCl Y199F = assay: Two electrode voltage-clamp of Xenopus laevis oocytes expressing Y199F mutant AVR-14B GluCl; format: cell-based, Haemonchus contortus; conditions: 1 μM ivermectin, mean ± s.e.m.
Description: as §1, with “20). After 2–5 days, oocytes were perfused with extracellular solution (115 mM NaCl, 1 mM KCl, 1.8 mM CaCl2, 10 mM HEPES, pH 7.4 with NaOH) alone or containing agonist, and currents were sampled at 1 kHz and filtered at 500 Hz with a Digidata 1322A digitizer, Geneclamp 500B amplifier and Clampex software (Molecular Devices, Sunnyvale, CA, USA).” for “20).”

N[C@@H](CCC(=O)O)C(=O)O [Glutamate]
Glutamate Imax [1]: 2.3 ± 0.3 μA
Glutamate nH (AVR-14B GluCl K219A; Hill coefficient): 2.1 ± 0.4
Glutamate Imax (AVR-14B GluCl K219A): 3.3 ± 0.5 μA
Glutamate nH (AVR-14B GluCl Y248F; Hill coefficient): 1.9 ± 0.2
Glutamate Imax (AVR-14B GluCl Y248F): 4.3 ± 0.8 μA
Glutamate nH (AVR-14B GluCl T245A; Hill coefficient): 2.0 ± 0.1
Glutamate Imax (AVR-14B GluCl T245A): 5.5 ± 0.8 μA
Glutamate Imax (AVR-14B GluCl Q141R): 1.1 ± 0.4 μA
Glutamate nH (AVR-14B GluCl S169A; Hill coefficient): 1.8 ± 0.2
Glutamate Imax (AVR-14B GluCl S169A): 4.3 ± 1.1 μA
Gating by glutamate (AVR-14B GluCl R76N; glutamate up to 100 mM): not substantially gated
Glutamate nH ([2]; Hill coefficient): 1.7 ± 0.2
Glutamate Imax ([2]; maximum glutamate-gated current): 3.1 ± 0.3 μA
Glutamate-gated currents (AVR-14B GluCl A197E; effect of the A197E substitution): abolished

Ivermectin
Ivermectin Imax (AVR-14B GluCl R95A): 4.8 ± 1.9 μA
Ivermectin Imax (AVR-14B GluCl R76N; 1 μM ivermectin, mean ± s.e.m.): 3.6 ± 1.0 μA
Ivermectin Imax ([2]; 1 μM ivermectin): 2.4 ± 0.4 μA
Ivermectin Imax (AVR-14B GluCl A197E; 1 μM ivermectin, A197E mutant, mean ± s.e.m.): 2.4 ± 0.7 μA
Ivermectin Imax (AVR-14B GluCl Y199F): 0.7 ± 0.2 μA
